Measured values: US12286401B2, “Small molecules that sensitize HIV-1 infected cells to antibody dependent cellular cytotoxicity” (THE TRUSTEES OF THE UNIVERSITY OF PENNSYLVANIA, priority 2018, dated 2025)
“And” between values parts separate entries of the source, which are not always exact repeats. Identical values can stand only once.

Assays:
[1] = tested on: HIV-1JR-FL EnvΔCT expressed at the surface of HOS cells; assay: Cell-based ELISA (CBE), 17b readout; conditions: for Fold over BNM-III-170 - 17b binding (±0.05): MCG analogs 50 μM, BNM-III-170 5 μM, 2G12 and DMSO normalized; for capacity to expose the CoRBS (17b binding, CBE): compounds 50 μM, result in words
Outline: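 HOS cells transiently expressing cytoplasmic-tail-truncated HIV-1JR-FL Env were treated 30 min at room temperature with compounds (50 μM), sCD4 ([…]) or DMSO, then 1 h with 17b antibody. Bound 17b was detected by HRP-conjugated anti-Fc chemiluminescence; values are fold over BNM-III-170 (5 μM), normalized to 2G12 and DMSO.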

[2] = tested on: uninfected bystander CD4+ T cells; assay: Uninfected bystander CD4+ T cell recognition and ADCC; type: cell-based; conditions: 50 μM
Procedure: FIG. 17A is a dot plot showing the ability of HIV+plasma to recognize uninfected bystander cells in the presence of 50 μM (+)-BNM-III-170 or (S)-MCG-IV-210 was evaluated by FACS. FIG. 17B is a dot showing the use of the uninfected eFluor 450+ cells as target cells for ADCC with autologous PBMC and 5 HIV+ plasma in the presence of 50 μM (+)-BNM-III-170 or (S)-MCG-IV-210. Statistical significance was evaluated using a paired t test (*, P<0.05; ****, P<0.0001; ns, not significant).
The capacity of (S)-MCG-IV-210 to protect uninfected bystander CD4+ T cells from ADCC responses was evaluated. Briefly, primary CD4+ T cells were infected with the NL4-3.ADA.GFP WT virus. The cell proliferation dye eFluor-450 was used to stain uninfected autologous CD4+ T cells, which were then added to the infected cells (eFluor-450-cells) and co-cultured for 72 h. The ability of HIV+ plasma to recognize uninfected bystander cells in the presence of 50 μM (+)-BNM-III-170 or (S)-MCG-IV-210 was evaluated by FACS (FIG. 17A). These uninfected eFluor 450+ cells were also used as target cells for ADCC with autologous PBMC and 5 HIV+ plasma in the presence of 50 μM (+)-BNM-III-170 or (S)-MCG-IV-210 (FIG. 17B).

Row | SMILES | Fold over BNM-III-170 - 17b binding (±0.05) [1] | further results
1 | COC(=O)N1CCC[C@H](C(=O)Nc2ccc(Cl)c(F)c2)C1 [(S)-MCG-III-188-A01] | 0.50 fold | capacity to expose the CoRBS (17b binding, CBE) [1]: higher activity
2 | CS(=O)(=O)N1CCC[C@H](C(=O)Nc2cccc(C(F)(F)F)c2)C1 [(S)-MCG-III-027-B04] | 0.07 fold | –
3 | CS(=O)(=O)N1CCC[C@H](C(=O)Nc2ccc(Br)cc2)C1 [(S)-MCG-III-027-A02] | 0.36 fold | –
4 | CCCNC(=O)N1CCC[C@H](C(=O)Nc2ccc(Cl)c(F)c2)C1 [(S)-MCG-IV-031-A05] | 0.55 fold | capacity to expose the CoRBS (17b binding, CBE) [1]: higher activity
5 | CCOC(=O)N1CCC[C@H](C(=O)Nc2ccc(Cl)c(F)c2)C1 [(S)-MCG-III-188-A02] | 0.53 fold | capacity to expose the CoRBS (17b binding, CBE) [1]: higher activity
6 | CS(=O)(=O)N1CCC[C@H](C(=O)Nc2cccc(Cl)c2)C1 [(S)-MCG-III-027-B01] | 0.10 fold | –
7 | CS(=O)(=O)N1CCC[C@H](C(=O)Nc2ccccc2Cl)C1 [(S)-MCG-III-027-C01] | 0.06 fold | –
8 | Cn1cnc(S(=O)(=O)N2CCCC(C(=O)Nc3ccc(Cl)c(F)c3)C2)c1 (centres unmarked) [MCG-III-157-B04] | 0.69 fold | –
9 | COc1cccc(NC(=O)[C@H]2CCCN(S(C)(=O)=O)C2)c1 [(S)-MCG-III-027-B05] | 0.06 fold | –
10 | CS(=O)(=O)N1CCC[C@H](C(=O)Nc2cccc(F)c2)C1 [(S)-MCG-III-027-B03] | 0.13 fold | –
11 | CS(=O)(=O)N1CCC[C@H](C(=O)Nc2ccc(Cl)c(F)c2)C1 [(S)-MCG-III-027-D05] | 0.46 fold and 0.58 fold | capacity to expose the CoRBS (17b binding, CBE) [1]: enhanced the capacity
12 | O=C(Nc1ccc(Cl)c(F)c1)C1CCCN(S(=O)(=O)c2ccccc2)C1 (centres unmarked) [MCG-III-157-B03] | 0.43 fold | –
13 | CS(=O)(=O)N1CCC[C@H](C(=O)Nc2ccc(F)cc2F)C1 [(S)-MCG-III-027-D04] | 0.07 fold | –
14 | CS(=O)(=O)N1CCC[C@H](C(=O)Nc2ccc(F)cc2)C1 [(S)-MCG-III-027-A03] | 0.12 fold | –
15 | CCS(=O)(=O)N1CCC[C@H](C(=O)Nc2ccc(Cl)c(F)c2)C1 [(S)-MCG-III-085-C01] | 0.35 fold | –
16 | NCCNC(=O)N1CCC[C@H](C(=O)Nc2ccc(Cl)c(F)c2)C1 [(S)-MCG-IV-210] | 0.58 fold | capacity to expose the CoRBS (17b binding, CBE) [1]: higher activity; recognition of bystander cells by HIV+ plasma ([2]; added at the time of co-culture): significantly decreased; ADCC-mediated killing of uninfected bystander CD4+ T cells ([2]; autologous PBMC and 5 HIV+ plasma): protecting uninfected bystander CD4+ T cells from ADCC-mediating killing
17 | O=C(Nc1ccc(Cl)c(F)c1)C1CCCOC1 (centres unmarked) [MCG-III-207] | 0.48 fold | –
18 | Cn1cnc(S(=O)(=O)N2CCC[C@H](C(=O)Nc3ccc(Cl)c(F)c3)C2)c1 [(S)-MCG-III-116-A02] | 0.24 fold | –
19 | CS(=O)(=O)N1CCC[C@H](C(=O)Nc2cccc(Br)c2)C1 [(S)-MCG-III-027-B02] | 0.10 fold | –
